Calls of active or inactive are those of the source. No cut-off for these calls is given here.

Data set [1] deals with Mus musculus. Nature of the data set: Reduction of carrageenan-induced paw edema volume in mouse at 125 mg/kg, po after 5 hrs relative to control. Type of data set: functional. The arrangement: scale not given: the % may be the effect or the level left. In general terms: The carrageenan paw model is a standard test of acute inflammation.
In data set [2] the test system is Mus musculus. In words: Reduction of carrageenan-induced paw edema volume in mouse at 125 mg/kg, po after 1 hr relative to control. Type of data set: functional. The arrangement: scale not given: the % may be the effect or the level left.
For data set [3], the system named is RAW264.7. Nature of the data set: Cytotoxicity against mouse RAW264.7 cells at 100 uM by MTT assay. Type of data set: cell-based. Particulars: raw264.7, 100 µM.
The subject of data set [4] is Mus musculus. Nature of the data set: Reduction of carrageenan-induced paw edema volume in mouse at 125 mg/kg, po after 3 hrs relative to control. Type of data set: functional. The arrangement: scale not given: the % may be the effect or the level left.
For data set [5], the system named is RAW264.7. Nature of the data set: Effect on IL1-beta production in mouse RAW264.7 cells at 100 uM. Format: functional.
The subject of data set [6] is RAW264.7. Nature of the data set: Reduction of IL1-beta mRNA synthesis in mouse RAW264.7 cells at 100 uM. Type of data set: functional, cell-based.

For the compound `CC(C)[C@@]1(C)CCC([C@H]2CC[C@@]3(C)[C@@H]4CC[C@H]5C(C)(C)[C@@H](O)CC[C@@]56C[C@@]46CC[C@]23C)CO1` (stereo partly drawn) [BERENJENOL], the Activity is on record as 51% in data set [1], 44% in data set [2], “Not Active” in data set [3] and 64% in data set [4].

For the compound `COc1cc(C)c(OC)c(O)c1C(C)C` [ISOESPINTANOL], the Activity result in data set [3] is on record as “Not Active”; in data set [4], 43%; in data set [5], 72%. In data set [6], the result was Active.

These data come from ChEMBL document CHEMBL1147136, “Constituents of Oxandra cf. xylopioides with anti-inflammatory activity” (J Nat Prod, 2007).
